Assay results from the NIST ThermoML archive (doi:10.1021/je8004408).
Numbers after ± are expanded uncertainties.

Tests used:
[1] = DTA
[2] = Molar enthalpy of transition or fusion; conditions: DSC
[3] = molar enthalpy of vaporization or sublimation; conditions: 298.15 K, Drop Microcalorimetry

Normal melting temperature ([1]; Crystal) [°C]	Molar enthalpy of transition or fusion ([2]; Crystal) [kcal/mol]	molar enthalpy ([3]; Crystal) [kcal/mol]	Normal melting temperature ([1]; Crystal 1) [°C]	Triple point temperature ([1]; Crystal 2) [K]	Molar enthalpy of transition or fusion ([2]; Crystal 1) [kcal/mol]	Molar enthalpy of transition or fusion ([2]; Crystal 2) [kcal/mol]	molar enthalpy ([3]; Crystal 2) [kcal/mol]	Structure (SMILES)
206.91 ± 0.39	8.05 ± 0.198	28.3 ± 0.717	–	–	–	–	–	O=C1CCCc2c(O)cccc21 [5-hydroxy-1-tetralone]
–	–	–	152.76 ± 0.45	387.46 ± 0.65	4.54 ± 0.17	3.11 ± 0.598	28.1 ± 0.669	O=C1CCCc2cc(O)ccc21 [6-hydroxy-1-tetralone]
